Laboratory results taken from publication PMC6965176, “Targeting Forward and Reverse EphB4/EFNB2 Signaling by a Peptide with Dual Functions” (Scientific Reports, 2020).
Non-standard residues stand in square brackets, D forms with d. Residues, ends and D or L forms follow the SMILES beside them. No end group written: not given here.

Columns and labels:
EphB4 = biological target: T1, EphB4 (Homo sapiens, UniProt P54760); experiment: SPR (BIACore) binding of peptides to immobilized EphB4; settings: Table S1; SPR BIACore, EphB4 immobilized on CM5 chip, 25°C, HBSEP buffer pH 7.4, peptides 1.6-800 nM, duplicate, KD = Koff/Kon, 1:1 Langmuir model
T1 construct: purchased R&D Systems
T1 sequence (P54760 16-987): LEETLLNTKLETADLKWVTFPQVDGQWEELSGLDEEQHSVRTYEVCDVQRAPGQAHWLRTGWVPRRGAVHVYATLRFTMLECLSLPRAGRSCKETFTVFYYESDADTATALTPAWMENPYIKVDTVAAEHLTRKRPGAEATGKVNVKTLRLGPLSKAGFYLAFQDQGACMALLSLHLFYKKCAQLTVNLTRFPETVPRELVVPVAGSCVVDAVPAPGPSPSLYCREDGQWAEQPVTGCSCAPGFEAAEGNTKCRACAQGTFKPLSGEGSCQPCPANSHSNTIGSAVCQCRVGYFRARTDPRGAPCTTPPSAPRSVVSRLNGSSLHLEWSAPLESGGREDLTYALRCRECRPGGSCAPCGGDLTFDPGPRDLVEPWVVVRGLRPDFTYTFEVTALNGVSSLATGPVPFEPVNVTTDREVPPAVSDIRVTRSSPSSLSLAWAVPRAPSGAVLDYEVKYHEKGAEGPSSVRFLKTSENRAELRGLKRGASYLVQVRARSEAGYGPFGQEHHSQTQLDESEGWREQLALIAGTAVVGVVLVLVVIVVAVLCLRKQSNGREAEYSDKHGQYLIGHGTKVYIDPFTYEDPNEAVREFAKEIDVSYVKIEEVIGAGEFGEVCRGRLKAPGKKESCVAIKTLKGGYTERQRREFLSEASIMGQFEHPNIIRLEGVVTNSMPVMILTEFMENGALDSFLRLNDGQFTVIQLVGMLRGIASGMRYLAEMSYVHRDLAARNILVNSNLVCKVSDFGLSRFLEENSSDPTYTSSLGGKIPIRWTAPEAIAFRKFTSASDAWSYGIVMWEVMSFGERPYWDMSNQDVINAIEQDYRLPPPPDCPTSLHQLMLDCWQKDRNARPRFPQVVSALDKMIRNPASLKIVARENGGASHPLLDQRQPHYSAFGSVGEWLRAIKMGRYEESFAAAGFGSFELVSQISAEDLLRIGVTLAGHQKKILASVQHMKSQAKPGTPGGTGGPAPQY
From the text: Surface plasmon resonance (SPR) binding and competition assays.
Immunoblotting, immunoprecipitation, and co-immunoprecipitation.

[1] = systemic exposure; cited from earlier work
From the text: Our group previously employed CCPM successfully to improve pharmacokinetics and enhance peptide stability for in vivo imaging applications[28]–[31]. The cross-linked core of CCPM prevents premature micelle disintegration, while the brush-like polyethylene glycol forms a dense protective layer on the micelle surface that minimizes micelle uptake by the organs of the mononuclear phagocytic system.

RF24 cells = experiment: Tubule formation of immortalized endothelial cells on Matrigel; assay type: cell-based; settings: BIDEN-AP 15 µM or EFNB2-Fc 2 nM, 24 h, number of nodes (Fig. 4A,B)
Protocol: Figure 4 BIDEN-AP–based agents inhibit tube formation and sensitize resistant endothelial cells to anti-VEGF antibody. (A,B) Tube formation by RF24 cells treated with EFNB2-Fc (2 nM) or BIDEN-AP (15 µM) compared to untreated controls (CTL). Representative data from three independent experiments are presented. (A) Representative microphotographs of tubes formed by RF24 cells are shown (n = 3). Images were taken at × 100 magnification. (B) Quantification of the number of nodes per field in three technical replicates. […] (C) Representative flow cytometry plots from three independent experiments of RF24_Bev cells are shown here. SYTOX-negative staining represents the live cell population.
Matrigel (Becton Dickinson, Bedford, MA) was used to assess formation of capillary-like structures by RF24 cells on a basement membrane. Twelve-well Costar plates (Corning, Corning, NY) were coated with Matrigel (10 mg/mL) according to the manufacturer’s instructions. RF24 cells (1.0 × 10^4 cells/well) were seeded on Matrigel-coated plates and incubated at 37 °C for 60 min. […] The degree of tubule formation was determined by the number of nodes. […] The nodes for each image were counted manually. Five images (×100 magnification) per treatment were counted double blindly. Data are expressed as a percentage of the number of tubes in untreated control wells.

recombinant human EphB4 = biological target: T2, recombinant human EphB4 (human, UniProt P54760 16-539); experiment: SPR; BIACore 3000; rhEphB4 amine-coupled to CM5 chips; peptides injected at 1.6 nM to 800 nM, 30 uL/min, in duplicate; 25 C; HBSEP buffer (0.01 M HEPES pH 7.4, 0.15 M NaCl, 3 mM EDTA, 0.005% P20); 1:1 Langmuir binding model, KD = Koff/Kon; settings: both partners purified
T2 construct: EphB4 (ephrin type-B receptor 4), human, recombinant; Amine-coupled to CM5 chips for SPR; a soluble extracellular form is likely; In the functional rows it stands for the EphB4 of the ovarian cancer cells; also called rhEphB4; source: bought: R&D Systems
T2 sequence (looked up): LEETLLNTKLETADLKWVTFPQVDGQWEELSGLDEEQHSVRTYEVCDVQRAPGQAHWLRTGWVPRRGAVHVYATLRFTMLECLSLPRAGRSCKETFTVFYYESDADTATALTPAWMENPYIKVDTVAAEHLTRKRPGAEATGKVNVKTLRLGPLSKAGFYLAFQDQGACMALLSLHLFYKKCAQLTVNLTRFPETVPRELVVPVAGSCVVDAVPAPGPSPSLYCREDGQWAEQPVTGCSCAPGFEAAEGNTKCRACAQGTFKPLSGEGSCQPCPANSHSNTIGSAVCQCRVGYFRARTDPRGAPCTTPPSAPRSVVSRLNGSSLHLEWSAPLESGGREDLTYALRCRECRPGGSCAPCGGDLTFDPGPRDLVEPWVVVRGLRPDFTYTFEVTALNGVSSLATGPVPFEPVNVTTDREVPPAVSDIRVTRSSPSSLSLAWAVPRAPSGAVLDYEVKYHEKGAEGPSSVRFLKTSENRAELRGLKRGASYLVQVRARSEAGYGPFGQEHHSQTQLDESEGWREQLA

[2] = biological target: T3, EphB4, purified recombinant human (rhEphB4) (human, UniProt P54760 16-987); experiment: SPR; competition: serial dilutions of BIDEN-AP (2 nM to 1000 nM) mixed with human EphB4 (30 nM) and injected onto EFNB2-Fc-coated CM-5 chips; settings: both partners purified
[3] = biological target: T3, EphB4, purified recombinant human …; experiment: SPR; EphB4 immobilised on sensor chips, peptides or CCPM-BIDEN-AP injected; BIACore 3000; BIDEN-AP data fitted to a 1:1 mass transfer interaction model; details in the Supplementary Information; settings: both partners purified
[4] = biological target: T4, recombinant human EphB4 (human), P54760; experiment: SPR; BIACore 3000; rhEphB4 amine-coupled to CM5 chips; peptides injected at 1.6 nM to 800 nM, 30 uL/min, in duplicate; 25 C; HBSEP buffer (0.01 M HEPES pH 7.4, 0.15 M NaCl, 3 mM EDTA, 0.005% P20); 1:1 Langmuir binding model, KD = Koff/Kon
T4 chain: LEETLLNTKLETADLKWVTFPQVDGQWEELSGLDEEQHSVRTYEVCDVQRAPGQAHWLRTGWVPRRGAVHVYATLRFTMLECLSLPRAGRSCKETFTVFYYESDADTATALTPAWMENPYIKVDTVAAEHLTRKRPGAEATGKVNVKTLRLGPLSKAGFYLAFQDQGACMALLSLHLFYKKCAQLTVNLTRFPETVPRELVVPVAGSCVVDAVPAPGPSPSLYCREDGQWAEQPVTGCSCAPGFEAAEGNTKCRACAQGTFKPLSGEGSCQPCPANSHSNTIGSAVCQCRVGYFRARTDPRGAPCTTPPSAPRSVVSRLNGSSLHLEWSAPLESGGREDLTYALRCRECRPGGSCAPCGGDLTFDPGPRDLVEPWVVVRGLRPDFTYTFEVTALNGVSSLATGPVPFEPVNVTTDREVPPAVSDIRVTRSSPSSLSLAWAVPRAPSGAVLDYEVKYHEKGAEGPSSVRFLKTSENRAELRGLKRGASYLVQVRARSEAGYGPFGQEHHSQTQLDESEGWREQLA

Molecule: CC[C@H](C)[C@H](NC(=O)[C@@H]1CCCN1C(=O)CNC(=O)[C@H](CC(N)=O)NC(=O)[C@@H]1CCCN1C(=O)[C@H](CO)NC(=O)[C@H](Cc1ccccc1)NC(=O)[C@H](CC(C)C)NC(=O)[C@H](Cc1ccc(O)cc1)NC(=O)[C@H](CC(N)=O)NC(=O)[C@@H](N)[C@@H](C)O)C(=O)N[C@@H](C)C(=O)N[C@H](CCCNC(=N)N)C(=O)N[C@@H](C)C(=O)N[C@@H](Cc1c[nH]c2ccccc12)C(N)=O [B4-002]
- Kd (EphB4): 39 nM

Molecule: CC[C@H](C)[C@H](NC(=O)[C@@H]1CCCN1C(=O)CNC(=O)[C@H](CC(N)=O)NC(=O)[C@@H]1CCCN1C(=O)[C@H](CO)NC(=O)[C@H](Cc1ccccc1)NC(=O)[C@@H](CC(C)C)NC(=O)[C@H](Cc1ccc(O)cc1)NC(=O)[C@H](CC(N)=O)NC(=O)[C@@H](N)[C@@H](C)O)C(=O)N[C@@H](C)C(=O)N[C@@H](CCCNC(=N)N)C(=O)N[C@@H](C)C(=O)N[C@@H](Cc1c[nH]c2ccccc12)C(N)=O [B4-004] (H-TNY[dL]FSPNGPIARAW-NH2)
- Kd (EphB4): 65 nM

Molecule: CC[C@H](C)[C@H](NC(=O)[C@@H]1CCCN1C(=O)CNC(=O)[C@H](CC(N)=O)NC(=O)[C@@H]1CCCN1C(=O)[C@H](CO)NC(=O)[C@@H](Cc1ccccc1)NC(=O)[C@H](CC(C)C)NC(=O)[C@H](Cc1ccc(O)cc1)NC(=O)[C@H](CC(N)=O)NC(=O)[C@@H](N)[C@@H](C)O)C(=O)N[C@@H](C)C(=O)N[C@@H](CCCNC(=N)N)C(=O)N[C@@H](C)C(=O)N[C@@H](Cc1c[nH]c2ccccc12)C(N)=O [B4-005] (H-TNYL[dF]SPNGPIARAW-NH2)
- Kd (EphB4): 75 nM

Molecule: TNYLFSPNGPIARA-NH2 [B4-008]
- Kd (EphB4): 13 nM

Molecule: TNYLFSPNGPIARAW-NH2 [TNYL-RAW]
- area-under-the time curve [AUC] [1]: 29.1 %ID h/mL

Molecule: YSA-TNYL-RAW-dimer [B4-003]
- Kd (EphB4): 21 nM

B1: EFNB2-Fc: ephrin B2 ligand fused to Fc, natural ligand of EphB4 (protein)
chain: IVLEPIYWNSSNSKFLPGQGLVLYPQIGDKLDIICPKVDSKTVGQYEYYKVYMVDKDQADRCTIKKENTPLLNCAKPDQDIKFTIKFQEFSPNLWGLEFQKNKDYYIISTSNGSLEGLDNQEGGVCQTRAMKILMKVGQDASSAGSTRNKDPTRRPELEAGTNGRSSTTSPFVKPNPGSSTDGNSAGHSGNNILGSEVALFA
modifications: left off: Fc, end not stated, kept
notes: ephrin B2 ligand fused to Fc, natural ligand of EphB4
- formation of capillary-like tubes (RF24 cells): significantly inhibited the formation of capillary-like tubes

B2: Cyclo(KTNYLFSPNGPIARAWD) (peptide)
peptide: KTNYLFSPNGPIARAWD
modifications: also: cyclic, ring bond not given here
notes: TNYL-RAW with an added Lys before and Asp after it, cyclised; MW 1932 Da; also called B4-001; source: synthetic peptide (solid phase, Rink resin, HPLC purified)
- Kd (recombinant human EphB4): 4.4 nM

B3: TNYL-RAW (peptide)
peptide: TNYLFSPNGPIARAW
notes: known EphB4 antagonist peptide, 15 residues (P1-P15); Made on Rink resin, so a C-terminal amide is likely; source: synthetic peptide (solid phase, Rink resin, HPLC purified)
- Kd (recombinant human EphB4): 3.1 nM

B4: BIDEN-AP (bi-directional ephrin agonist peptide), TNd(Y)LFSPNGPIARAW (peptide)
peptide: TN[dY]LFSPNGPIARAW
notes: TNYL-RAW with L-Tyr-P3 replaced by D-Tyr; source: synthetic peptide
- IC50 [2]: 4 nM
- Kd [3]: 7 nM

Molecule: TNYLFSPNGPIARAW (modifications not checked) [YSA-TNYL-RAW-dimer]
- Kd [4]: 21 nM
